Where a SMILES comes first, the peptide text is derived from it. [ ]: non-standard residue; d: D form. The star is where a group is joined. Bn = c1ccc(C*)cc1

In this assay the target is T1, NK2 receptor (Bos taurus, UniProt P05363).
T1 construct: membrane fraction containing the receptor was prepared from the inner wall of the bovine third stomach; tissue Kyoto Chuo Chikusan Fukuseibutsu Oroshi Kyokai; host or cells: inner wall of the bovine third stomach (membrane fraction)
T1 sequence (P05363 1-384): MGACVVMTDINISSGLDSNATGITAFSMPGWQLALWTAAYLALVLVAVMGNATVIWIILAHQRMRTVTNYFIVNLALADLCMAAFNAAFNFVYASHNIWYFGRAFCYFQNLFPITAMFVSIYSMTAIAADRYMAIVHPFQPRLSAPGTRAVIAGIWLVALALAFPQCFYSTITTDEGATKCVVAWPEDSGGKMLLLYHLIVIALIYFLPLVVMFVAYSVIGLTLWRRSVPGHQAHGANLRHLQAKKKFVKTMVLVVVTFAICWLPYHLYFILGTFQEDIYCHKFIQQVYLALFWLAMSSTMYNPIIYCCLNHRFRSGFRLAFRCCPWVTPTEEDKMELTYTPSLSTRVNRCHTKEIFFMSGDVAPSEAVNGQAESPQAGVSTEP
Put plainly: Binding inhibiting activity on NK2 receptor (125I-NKA, membrane fraction of bovine third stomach). The conditions noted are these: 125I-neurokinin A, membrane fraction from inner wall of bovine third stomach, 25° C., 3 hours. On the procedure: The method of Paul L. M. Van Giersbergen et al. [Proc. Natl. Acad. Sci. U.S.A., 88, 1661 (1991) was modified for this assay. The membrane fraction containing the receptor was prepared from the inner wall of the bovine third stomach (purchased from Kyoto Chuo Chikusan Fukuseibutsu Oroshi Kyokai).
The inner wall of the bovine third stomach stored at −80° C. was cut to 1 cm×1 cm or less, and disrupted in 3 liters/kg of 50 mM Tris-HCl buffer (pH 7.4) supplemented with 120 mM sodium chloride, 5 mM potassium chloride, 0.02% BSA and 5% sucrose, using a polytron homogenizer (Kinematika, Germany). Then, the disrupted product was centrifuged at 1,000×g for 10 minutes. The supernatant was further centrifuged at 45,000×g for 20 minutes. The precipitate was suspended in 200 ml of 50 mM Tris-HCl buffer (pH 7.4) supplemented with 300 mM potassium chloride, 10 mM ethylenediaminetetraacetic acid, 0.1 mM […] and 0.02% BSA, and gently stirred under ice cooling for 60 minutes. The suspension was centrifuged at 45,000×g for 20 minutes. The precipitate was washed with 200 ml of 50 mM Tris-HCl buffer (pH 7.4), and stored in the frozen state at −40° C. as a receptor sample.
This sample was suspended in a reaction buffer solution [50 mM Tris-HCl buffer (pH 7.4), 0.02% bovine serum albumin and 4 mM manganese chloride] so as to give a protein concentration of 0.7 mg/ml, and 100 μl thereof was used for reaction. A test sample and ^125I-NKA (0.61 KBq, ^125I-neurokinin A, 81.4 TBq/mmol, Du Pont/NEN Research Products, U.S.A.) were also added, and reacted in 0.2 ml of the reaction buffer solution at 25° C. for 3 hours. The reaction mixture was rapidly filtered through a glass filter (GF/B, Whatman, U.S.A.) using a cell harvester (Type 290PHD, Cambridge Technology Inc., U.S.A.) to terminate the reaction, and washed 3 times with 250 μl of 50 mM Tris-HCl buffer (pH 7.4) supplemented with 0.02% bovine serum albumin. The radioactivity left on the filter was measured with a gamma-ray counter. […]
As a reminder, the IC50 is the concentration that inhibits the measured activity by half. Low readings indicate higher potency, high ones lower potency. In turn, `CC(C)C[C@@H]1NC(=O)[C@@H](CC(C)C)NC(=O)[C@H]([C@@H](C)OCc2ccccc2)NC(=O)[C@@H](CCC(=O)O)NC(=O)[C@@H](Cc2c[nH]c3ccccc23)NC1=O` [Cyclo(-D-Glu-Thr(Bzl)-D-Leu-Leu-D-Trp-)] (cyclo([dE]T(Bn)[dL]L[dW])) yielded an IC50 of 1500 nM. The result for `CC(C)C[C@@H]1NC(=O)[C@@H](CC(C)C)NC(=O)[C@H](COCc2ccccc2)NC(=O)[C@@H](CCC(=O)O)NC(=O)[C@@H](Cc2c[nH]c3ccccc23)NC1=O` [Cyclo(-D-Glu-Ser(Bzl)-D-Leu-Leu-D-Trp-)] (cyclo([dE]S(Bn)[dL]L[dW])) reads 580 nM; that for `CC(C)C[C@@H]1NC(=O)[C@@H](CC(C)C)NC(=O)[C@H](Cc2c[nH]c3ccccc23)NC(=O)[C@@H](CC(=O)O)NC(=O)[C@@H](Cc2c[nH]c3ccccc23)NC1=O` [Cyclo(-D-Asp-Trp-D-Leu-Leu-D-Trp-)] (cyclo([dD]W[dL]L[dW])), 27 nM.
